Values joined by “and” are separate entries in the source; they are usually repeats but may differ in a detail not shown here. Equal entries are not always repeated. Where two headings read alike, the source gives them in different places.
Assays:
HEK293T cells = assay: Drug sensitivity assay (CellTiter-Glo viability) with or without MLN4924 pretreatment; assay type: cell-based, human; conditions: Supplementary Table 2; for EC50: Homo sapiens, HEK-293T, HEK293T viability, 72 h, compound alone, read-out: Cellular assays EC50; for Toxicity rescue: MLN4924-mediated cytotoxicity rescue, 10 µM used where n.d.
Summary of the method: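 HEK293T–Cas9 cells at 0.15 × 10^6 ml^−1 were treated with DMSO or 100 nM MLN4924 before plating. Test drugs were added 2 h later and exposure lasted 3 days. Viability was read by CellTiter-Glo luminescence and expressed relative to DMSO controls.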

[1] = test system: cyclin K–eGFP degradation reporter; assay: Cyclin K reporter stability analysis (dual-color cyclin K–eGFP reporter); assay type: cell-based, human; conditions: Supplementary Table 2; HEK293T cycK-eGFP reporter, 5 h; read-out: Cellular assays DC50
Procedure: HEK293T–Cas9 cells expressing the cyclin K–eGFP degradation reporter were resuspended at 1 × 10^6 ml^−1 and 50 µl of cell suspension was seeded in non-cell-culture-treated 384-well plates. Shortly after, cells were treated with drug or DMSO for 5 h. […] The fluorescent signal was quantified by flow cytometry (LSRFortessa flow cytometer, BD Biosciences). Using FlowJo (flow cytometry analysis software, BD Biosciences), the geometric mean of the eGFP and mCherry fluorescent signal for round and mCherry-positive cells was calculated. The ratio of eGFP to mCherry was normalized to the average of three DMSO-treated controls.

CDK12–cyclin K and DDB1 = biological target: T1, CDK12–cyclin K and DDB1 (Homo sapiens, UniProt Q16531+Q9NYV4, K965R); assay: TR-FRET ternary complex formation assay (compound titration); assay type: binding; conditions: for TR-FRET signal at compound concentration: replicate titrations
T1 construct: His6–CDK12 (a.a. 713–1,052); full-length or beta-propeller B domain deletion (ΔBPB: a.a. 396–705 deleted) constructs of His6–DDB1ΔBPB, StrepII–Avi–DDB1, or His6–Spy–DDB1; made in house; host or cells: Trichoplusia ni High Five insect cells (baculovirus)
T1 sequence (Q9NYV4 713-1052 K965R): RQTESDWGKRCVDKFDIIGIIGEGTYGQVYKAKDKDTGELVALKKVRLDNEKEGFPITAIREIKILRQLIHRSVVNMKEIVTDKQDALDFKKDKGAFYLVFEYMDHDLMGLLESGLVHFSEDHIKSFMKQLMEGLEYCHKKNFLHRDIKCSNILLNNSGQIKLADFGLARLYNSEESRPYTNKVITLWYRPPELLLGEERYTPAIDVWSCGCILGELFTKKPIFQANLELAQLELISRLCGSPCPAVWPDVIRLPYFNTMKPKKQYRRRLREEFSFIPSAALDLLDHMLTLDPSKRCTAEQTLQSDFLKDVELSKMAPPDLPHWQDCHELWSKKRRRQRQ
T1 sequence (O75909 1-267 partner): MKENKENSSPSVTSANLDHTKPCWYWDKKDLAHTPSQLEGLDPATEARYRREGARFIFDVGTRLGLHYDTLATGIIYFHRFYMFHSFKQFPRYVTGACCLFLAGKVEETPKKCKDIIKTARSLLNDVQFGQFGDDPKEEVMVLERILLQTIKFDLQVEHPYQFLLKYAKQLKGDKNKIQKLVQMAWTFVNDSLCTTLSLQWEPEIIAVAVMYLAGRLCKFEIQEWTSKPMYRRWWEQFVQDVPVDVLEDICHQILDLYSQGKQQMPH
T1 sequence (Q16531 whole entry): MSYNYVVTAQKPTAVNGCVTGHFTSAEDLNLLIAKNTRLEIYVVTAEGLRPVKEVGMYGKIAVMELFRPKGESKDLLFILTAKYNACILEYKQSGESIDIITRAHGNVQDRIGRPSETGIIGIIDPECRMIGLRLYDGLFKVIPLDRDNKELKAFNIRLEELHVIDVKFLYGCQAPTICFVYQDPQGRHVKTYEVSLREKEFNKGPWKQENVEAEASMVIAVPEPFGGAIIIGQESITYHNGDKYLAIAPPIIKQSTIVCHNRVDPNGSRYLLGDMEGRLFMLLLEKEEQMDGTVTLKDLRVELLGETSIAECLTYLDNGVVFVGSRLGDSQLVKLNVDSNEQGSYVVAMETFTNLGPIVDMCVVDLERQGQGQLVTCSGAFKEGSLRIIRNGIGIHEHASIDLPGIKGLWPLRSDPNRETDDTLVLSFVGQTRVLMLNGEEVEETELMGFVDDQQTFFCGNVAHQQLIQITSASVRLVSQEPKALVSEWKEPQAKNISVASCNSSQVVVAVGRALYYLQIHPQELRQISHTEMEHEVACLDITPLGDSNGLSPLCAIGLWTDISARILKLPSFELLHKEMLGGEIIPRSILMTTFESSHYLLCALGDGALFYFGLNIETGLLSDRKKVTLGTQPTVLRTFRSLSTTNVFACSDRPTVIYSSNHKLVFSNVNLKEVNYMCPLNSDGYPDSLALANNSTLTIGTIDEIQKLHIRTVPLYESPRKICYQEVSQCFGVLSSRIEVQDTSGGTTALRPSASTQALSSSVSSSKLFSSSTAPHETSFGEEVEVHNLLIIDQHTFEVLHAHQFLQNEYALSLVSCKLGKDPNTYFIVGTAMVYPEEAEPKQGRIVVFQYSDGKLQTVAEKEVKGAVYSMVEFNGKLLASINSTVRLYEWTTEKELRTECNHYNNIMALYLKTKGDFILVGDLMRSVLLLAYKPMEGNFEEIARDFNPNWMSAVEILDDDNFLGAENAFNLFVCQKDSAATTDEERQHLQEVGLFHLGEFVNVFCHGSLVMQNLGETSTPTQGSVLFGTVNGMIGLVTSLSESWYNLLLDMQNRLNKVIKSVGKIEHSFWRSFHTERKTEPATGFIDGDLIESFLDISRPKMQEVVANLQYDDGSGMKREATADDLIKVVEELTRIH
Summary of the method: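 Read-out used a 70 μs delay to cut background fluorescence; TR-FRET signal taken as the 520 nm/490 nm emission ratio.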

[2] = compound concentration 79.2001 nM
[3] = compound concentration 158.4 nM
[4] = compound concentration 309.6 nM
[5] = compound concentration 626.401 nM
[6] = compound concentration 1252.8 nM
[7] = compound concentration 9936.01 nM
[8] = compound concentration 20016 nM
[9] = in vitro complex formation, 50 nM CDK12–cyclin K, 100 nM DDB1, text and figures, read-out: TR-FRET EC50

SMILES | EC50 (HEK293T cells) [nM] | Toxicity rescue (HEK293T cells) [%] | DC50 [1] [nM] | TR-FRET signal at compound concentration (CDK12–cyclin K and DDB1; compound concentration 4.68 nM) | TR-FRET signal at compound concentration (CDK12–cyclin K and DDB1; compound concentration 21.6 nM) | TR-FRET signal at compound concentration (CDK12–cyclin K and DDB1; compound concentration 36 nM) | TR-FRET signal at compound concentration (CDK12–cyclin K and DDB1; [2]) | TR-FRET signal at compound concentration (CDK12–cyclin K and DDB1; [3]) | TR-FRET signal at compound concentration (CDK12–cyclin K and DDB1; [4]) | TR-FRET signal at compound concentration (CDK12–cyclin K and DDB1; [5]) | TR-FRET signal at compound concentration (CDK12–cyclin K and DDB1; [6]) | TR-FRET signal at compound concentration (CDK12–cyclin K and DDB1; compound concentration 2448 nM) | TR-FRET signal at compound concentration (CDK12–cyclin K and DDB1; [7]) | TR-FRET signal at compound concentration (CDK12–cyclin K and DDB1; [8]) | EC50 (CDK12–cyclin K and DDB1; [9]) [nM] | TR-FRET signal, individual replicate (CDK12–cyclin K and DDB1; compound concentration 4.68 nM) | TR-FRET signal, individual replicate (CDK12–cyclin K and DDB1; compound concentration 21.6 nM) | TR-FRET signal, individual replicate (CDK12–cyclin K and DDB1; compound concentration 36 nM) | TR-FRET signal, individual replicate (CDK12–cyclin K and DDB1; [2]) | TR-FRET signal, individual replicate (CDK12–cyclin K and DDB1; [3]) | other results
CC[C@H](CO)Nc1nc(NCCCCCCc2ccccc2)c2ncn(C(C)C)c2n1 [DS10] | > 10000 | 0 | > 10000 | 0.1344 and 0.1608 | 0.1474 and 0.1725 | 0.1731 and 0.2063 | 0.1998 and 0.2552 | 0.2546 and 0.3178 | 0.334 and 0.4076 | 0.4243 and 0.5117 | 0.5049 and 0.5958 | 0.6152 and 0.6779 | 0.7339 and 0.7716 | 0.6991 and 0.7616 | 595 ± 91 |  |  |  |  |  | EC50 (CDK12–cyclin K and DDB1; Supplementary Table 2, read-out: TR-FRET EC50 TR-FRET): 595 nM; fold lower affinity than DS11 (CDK12–cyclin K and DDB1; TR-FRET complex formation): 5-10 fold
CC[C@H](CO)Nc1nc(NC)c2ncn(C(C)C)c2n1 [DS23] | > 10000 | 0 | > 10000 |  |  |  |  |  |  |  |  |  |  |  |  | 0.1301 and 0.1411 | 0.1343 and 0.1464 | 0.1332 and 0.1524 | 0.1391 and 0.1534 | 0.1406 and 0.1374 | TR-FRET signal, individual replicate (CDK12–cyclin K and DDB1; [4]): 0.0615 and 0.162; TR-FRET signal, individual replicate (CDK12–cyclin K and DDB1; [5]): 0.1683 and 0.1829; TR-FRET signal, individual replicate (CDK12–cyclin K and DDB1; [6]): 0.1869 and 0.2017; TR-FRET signal, individual replicate (CDK12–cyclin K and DDB1; compound concentration 2448 nM): 0.194 and 0.2082; TR-FRET signal, individual replicate (CDK12–cyclin K and DDB1; [7]): 0.2263 and 0.2491; TR-FRET signal, individual replicate (CDK12–cyclin K and DDB1; [8]): 0.2226 and 0.3132; DDB1–CDK12 complex formation, result in words (CDK12–cyclin K and DDB1; in vitro TR-FRET): did not appreciably promote the binding
CC[C@H](CO)Nc1nc(NCCCCCc2cccc3ccccc23)c2ncn(C(C)C)c2n1 [DS15] | > 10000 | 0 | > 10000 | 0.1682 and 0.1874 | 0.2977 and 0.3197 | 0.5215 and 0.541 | 0.8673 and 0.9745 | 1.23 and 1.324 | 1.677 and 1.781 | 2.096 and 2.217 | 2.231 and 2.525 | 2.525 and 2.68 | 2.633 and 2.833 | 2.343 and 2.482 | 182 | 0.1682 and 0.1874 | 0.2977 and 0.3197 | 0.5215 and 0.541 | 0.8673 and 0.9745 | 1.23 and 1.324 | TR-FRET signal, individual replicate (CDK12–cyclin K and DDB1; [4]): 1.677 and 1.781; TR-FRET signal, individual replicate (CDK12–cyclin K and DDB1; [5]): 2.096 and 2.217; TR-FRET signal, individual replicate (CDK12–cyclin K and DDB1; [6]): 2.231 and 2.525; TR-FRET signal, individual replicate (CDK12–cyclin K and DDB1; compound concentration 2448 nM): 2.525 and 2.68; TR-FRET signal, individual replicate (CDK12–cyclin K and DDB1; [7]): 2.633 and 2.833; TR-FRET signal, individual replicate (CDK12–cyclin K and DDB1; [8]): 2.343 and 2.482; EC50 (CDK12–cyclin K and DDB1; sheet MOESM7, read-out: log TR-FRET EC50 (converted)): 182 nM

From PMC10746543, “Design principles for cyclin K molecular glue degraders” (Nature Chemical Biology, 2023)
